Source: US11160790B2, “Method of inhibiting Cryptococcus growth using eltrombopag” (priority 2019, dated 2021)

Tests used:
C. deuterogattii R265 = assay: Checkerboard titration assay; type: cell-based, Cryptococcus deuterogattii; details: 30° C., 48 hours
Procedure: (§1) Amphotericin B plus 5-flucytosine or fluconazole are combinations often used to treat cryptococcal meningitis. To investigate the synergy between eltrombopag and existing antifungal drugs or other drugs, a checkerboard titration assay was performed on Cryptococcus. Briefly, C. neoformans […] and C. deuterogattii […] cells were cultured overnight at 30° C. and then washed twice with double-distilled water. The cells were diluted to 10^3 cfu/mL with RPMI 1640 medium, and 100 μL of the cell suspension was added to each well of a 96-well polystyrene plate. […] After incubation at 30° C. for 48 hours, the growth of cells under different treatments was assessed by measuring the light absorbance at 600 nm (OD600). This assay allows the determination of fractional inhibitory concentration index (FICI): (MICcombined of drug A/MICalone of drug A)+(MICcombined of drug B/MICalone of drug B). After the checkerboard titration assay, the cells (3 μL) in the 96-well plate were transferred to drug-free YPD agar plates. After incubation at 30° C. for 48 hours, the agar plates were photographed and assessed for cell viability.

C. neoformans H99 [1] = assay: Checkerboard titration assay; type: cell-based, Cryptococcus neoformans; details: 30° C., 48 hours
Procedure: as §1

C. neoformans H99 [2] = assay: XTT-reduction assay of biofilm metabolic activity; type: cell-based, Cryptococcus neoformans; details: at respective MICs (1 mg/L amphotericin B, 4 mg/L fluconazole), 24 hours
Procedure: Cryptococcus biofilms, which are composed of Cryptococcus cells and extracellular matrix, enhance the tolerance of Cryptococcus to antifungal agents (such as amphotericin B) and host defense mechanisms. To assess whether eltrombopag impacts biofilm formation in Cryptococcus, an XTT-reduction assay was used to measure the metabolic activity of C. neoformans cells treated with eltrombopag at 37° C. Briefly, C. neoformans […] cells were cultured in YPD medium at 30° C. overnight. The cells were washed twice with phosphate buffered saline (PBS) and resuspended in RPMI 1640 medium with or without eltrombopag at the indicated concentrations. The cell suspension (0.0005 OD600/mL) was added to a 96-well polystyrene plate and incubated at 37° C. for 24 or 48 hours. […] After incubation, the cells were washed three times with PBS and subjected to XTT reduction assay to quantify formazan formation by measuring the light absorbance at 492 nm. The experiments were performed in triplicate, and the results were presented as mean±standard deviation. Statistical significance for the data sets was determined using a two-tailed t test.

Row | SMILES | MICalone (C. deuterogattii R265) [mg/L] | MICcombined of AMB (C. deuterogattii R265; AMB in combination with ETP) [mg/L] | MICalone (C. neoformans H99 [1]) [mg/L] | MICcombined of AMB (C. neoformans H99 [1]; AMB in combination with ETP) [mg/L] | reducing the metabolic activity of C. neoformans biofilms, compared with eltrombopag (C. neoformans H99 [2]) | MICcombined of FK506 (C. deuterogattii R265; FK506 in combination with ETP) [mg/L] | MICcombined of FK506 (C. neoformans H99 [1]; FK506 in combination with ETP) [mg/L] | MICcombined of FLC (C. deuterogattii R265; FLC in combination with ETP) [mg/L] | MICcombined of FLC (C. neoformans H99 [1]; FLC in combination with ETP) [mg/L]
1 | C[C@@H]1[C@H](O)[C@@H](C)/C=C/C=C/C=C/C=C/C=C/C=C/C=C/[C@H](O[C@@H]2O[C@H](C)[C@@H](O)[C@H](N)[C@@H]2O)C[C@@H]2O[C@](O)(C[C@@H](O)C[C@@H](O)[C@H](O)CC[C@@H](O)C[C@@H](O)CC(=O)O[C@H]1C)C[C@H](O)[C@H]2C(=O)O [AMB, amphotericin B] | 1 | 1 | 1 | 0.5 | less effective than eltrombopag | – | – | – | –
2 | C=CC[C@@H]1/C=C(\C)C[C@H](C)C[C@H](OC)[C@H]2O[C@@](O)(C(=O)C(=O)N3CCCC[C@H]3C(=O)O[C@H](/C(C)=C/[C@@H]3CC[C@@H](O)[C@H](OC)C3)[C@H](C)[C@@H](O)CC1=O)[C@H](C)C[C@@H]2OC [FK506, tacrolimus] | >16 | – | >16 | – | – | 0.25 | 0.25 | – | –
3 | OC(Cn1cncn1)(Cn1cncn1)c1ccc(F)cc1F [FLC, fluconazole] | 16 | – | 4 | – | less effective than eltrombopag | – | – | 16 | 8
